{"source": "patent US20050096323A1", "about": "“Diketopiperazine derivatives to inhibit thrombin” (NovoScience Pharma Inc., priority 1999, published 2005)", "key": {"urokinase": {"biological_target": "T1, urokinase (Homo sapiens, UniProt P00749)", "T1 construct": "purchased Sigma", "test": "Urokinase inhibition constant (Ki), fluorogenic substrate assay", "format": "biochemical", "description": "(§1) The activity and selectivity of the present invention can be identified by determination of the inhibition constant (Ki) for serine proteases such thrombin and trypsin and fibrinolytic enzymes such as urokinase, plasmin and tissue plasminogen activator (tPA). All of enzymes are purchased from Sigma. The general assay conditions are as follows. The fluorogenic substrates are dissolved in DMSO and diluted using assay buffer containing 50 mM Tris.HCl (pH 7.8 at 25° C.), 0.1 M NaCl and 0.1% polyethylene glycol 8000 (PEG 8000). […] The assays were conducted using Hitachi F2500 spectrophotometer under ambient temperature and at the excitation and emission wavelengths of 383 nm and 455 nm, respectively. The typical progressive data of the enzymatic assays are shown in FIGS. 1-3, and the determination of inhibition constant (Ki) is shown in FIG. 4."}, "[1]": {"system": "pooled normal human plasma", "test": "Ex vivo coagulation assay (APTT prolongation)", "format": "biochemical", "settings": "normal citrated human plasma", "method": "Frozen-pooled human plasma was obtained from Sigma. Measurement of APTT was made using the ELECTRA™ 800 automated coagulometer (Medical Laboratory Automation Inc.) using the automated APTT reagent (SIGMA) as the initiator of clotting according to the manufacture's instructions. The assay was conducted by making a series of dilution of the reference and test compounds in rapidly thawed plasma (compound: plasma=0.1 ml:0.9 ml) followed by adding the mixed solution to the wells of the assay carousel. Tris buffers (pH 7.8 at 25° C.) were used through the entire assay."}, "plasmin": {"biological_target": "T2, plasmin (Homo sapiens, UniProt P00747)", "T2 construct": "purchased Sigma", "T2 sequence (P00747 581-810 limits assumed, species assumed)": "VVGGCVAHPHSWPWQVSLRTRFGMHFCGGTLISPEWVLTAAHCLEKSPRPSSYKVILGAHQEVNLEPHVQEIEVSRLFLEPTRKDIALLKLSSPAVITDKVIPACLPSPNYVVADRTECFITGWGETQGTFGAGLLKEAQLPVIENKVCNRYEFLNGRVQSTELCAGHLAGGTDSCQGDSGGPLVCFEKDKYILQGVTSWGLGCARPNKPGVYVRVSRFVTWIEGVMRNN", "T2 sequence (P00747 97-580 partner limits assumed, species assumed)": "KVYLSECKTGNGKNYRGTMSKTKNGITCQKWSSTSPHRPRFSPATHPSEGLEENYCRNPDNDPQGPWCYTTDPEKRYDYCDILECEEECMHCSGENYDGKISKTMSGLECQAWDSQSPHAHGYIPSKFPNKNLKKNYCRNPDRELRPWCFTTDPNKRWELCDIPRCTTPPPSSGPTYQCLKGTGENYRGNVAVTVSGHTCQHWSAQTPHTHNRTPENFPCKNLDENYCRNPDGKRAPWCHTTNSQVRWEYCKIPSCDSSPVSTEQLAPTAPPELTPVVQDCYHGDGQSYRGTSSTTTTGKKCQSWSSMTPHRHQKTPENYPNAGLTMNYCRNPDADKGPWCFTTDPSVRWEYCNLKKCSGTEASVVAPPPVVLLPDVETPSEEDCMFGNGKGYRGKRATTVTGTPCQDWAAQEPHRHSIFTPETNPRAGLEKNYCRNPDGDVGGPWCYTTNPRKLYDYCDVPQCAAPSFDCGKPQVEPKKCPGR", "test": "Plasmin inhibition constant (Ki), fluorogenic substrate assay", "format": "biochemical", "description": "as §1"}, "SD rats [2]": {"system": "SD rats", "test": "Weight of deep vein thrombosis (inferior vena cava thrombi) in rats", "format": "in vivo, rat", "settings": "for Thrombi (mg) Dry weight / Thrombi (mg) Wet weight: 4 hours", "method": "The drug was administered immediately after operation and, 4 hours later, the thrombi were collected and weighted."}, "SD rats [3]": {"system": "SD rats", "test": "Acute myocardial infarction by coronary artery ligation in rats", "format": "in vivo, rat", "settings": "for CK (u/ml) / LDH (u/ml): serum", "method": "The drugs were administered 8 to 10 min after the coronary artery was ligated."}, "SD rats [4]": {"system": "SD rats", "test": "RT, TT, PT, APTT and FIB in rat plasma after administration", "format": "in vivo", "parameters": "FIB (Fibrillation) / RT (Clot Retraction Time) / TT (Thrombin Time): unit not given here", "settings": "0.125 mg/kg i.v., 0.5 h", "description": "Blood was taken at 0.5 h and 1.5 h after i.v. injection and at 1 h and 3 h after i.g. and plasma RT,TT,PT,APTT and FIB were determined."}, "[5]": {"settings": "0.125 mg/kg i.v., 0 min after ligation (before drug)"}, "[6]": {"settings": "0.125 mg/kg i.v., 10 min after ligation"}, "[7]": {"settings": "0.125 mg/kg i.v., 30 min after ligation"}, "[8]": {"settings": "0.125 mg/kg i.v., 6 h after ligation"}, "[9]": {"settings": "0.25 mg/kg i.v., 0 min after ligation (before drug)"}, "[10]": {"settings": "0.25 mg/kg i.v., 10 min after ligation"}, "[11]": {"settings": "0.25 mg/kg i.v., 30 min after ligation"}, "[12]": {"settings": "0.25 mg/kg i.v., 6 h after ligation"}, "[13]": {"settings": "75 mg/kg intraduodenum, 0 min after ligation (before drug)"}, "[14]": {"settings": "75 mg/kg intraduodenum, 10 min after ligation"}, "[15]": {"settings": "75 mg/kg intraduodenum, 30 min after ligation"}, "[16]": {"settings": "75 mg/kg intraduodenum, 6 h after ligation"}}, "note": "Where a name gives a salt, the structure may show the parent alone.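 For CK (u/ml) in this document: blood collected at end of 6 h (i.v.) or 8 h (intraduodenal) ECG observation.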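 For LDH (u/ml) in this document: blood collected at end of 6 h (i.v.) or 8 h (intraduodenal) ECG observation.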"}
{"smiles": "CC1CNc2c(cccc2S(=O)(=O)N2C(=O)C3CC(C)CCN3C(=O)C2CCCNC(=N)N)C1", "note": "[NPI1999, (3S,6R,8R)-Bicyclo[4.4.0]-1,4-diaza-3-(3-guanidinopropyl)-4-N-(1,2,3,4-tetrahydro-3-methyl-8-quinolinesulfonyl)-8-methyl-2,5-decanedione, hydrochoride salt]", "values": [{"measurement": "Cycloargatroban [Ki (Enzyme)/Ki (Thrombin)] vs. Argatroban [Ki (Enzyme)/Ki (Thrombin)]", "setting": "urokinase; enzyme = urokinase", "value": "−0.14", "unit": "fold"}, {"measurement": "Ki", "setting": "urokinase; substrate N-Cbz-Gly-Gly-Arg-AMC", "value": 295, "unit": "µM"}, {"measurement": "effect on APTT compared with argatroban", "setting": "[1]", "value": "less strong effect"}, {"measurement": "effect on activated partial thromboplastin time (APTT)", "setting": "[1]; FIG. 5", "value": "prolonged the APTT in a dose dependent manner"}, {"measurement": "Cycloargatroban [Ki (Enzyme)/Ki (Thrombin)] vs. Argatroban [Ki (Enzyme)/Ki (Thrombin)]", "setting": "plasmin; enzyme = plasmin", "value": "−0.67", "unit": "fold"}, {"measurement": "Ki", "setting": "plasmin; substrate D-Ala-Leu-Lys-AMC", "value": 528, "unit": "µM"}, {"measurement": "Thrombi (mg) Dry weight", "setting": "SD rats [2]; 0.125 mg/kg i.v.", "value": "7.62 ± 6.18", "unit": "mg"}, {"measurement": "Thrombi (mg) Wet weight", "setting": "SD rats [2]; 0.125 mg/kg i.v.", "value": "19.84 ± 12.17", "unit": "mg"}, {"measurement": "Thrombi (mg) Dry weight", "setting": "SD rats [2]; 0.25 mg/kg i.v.", "value": "6.70 ± 4.34", "unit": "mg"}, {"measurement": "Thrombi (mg) Wet weight", "setting": "SD rats [2]; 0.25 mg/kg i.v.", "value": "19.63 ± 12.02", "unit": "mg"}, {"measurement": "Thrombi (mg) Dry weight", "setting": "SD rats [2]; 0.50 mg/kg i.v.", "value": "5.81 ± 3.25", "unit": "mg"}, {"measurement": "Thrombi (mg) Wet weight", "setting": "SD rats [2]; 0.50 mg/kg i.v.", "value": "18.85 ± 8.61", "unit": "mg"}, {"measurement": "Thrombi (mg) Dry weight", "setting": "SD rats [2]; 75 mg/kg intraduodenum", "value": "11.66 ± 4.23", "unit": "mg"}, {"measurement": "Thrombi (mg) Wet weight", "setting": "SD rats [2]; 75 mg/kg intraduodenum", "value": "32.02 ± 19.34", "unit": "mg"}, {"measurement": "thrombi weights", "setting": "SD rats [2]; i.v. groups (0.125, 0.25, 0.5 mg/kg)", "value": "thrombi weights were decreased"}, {"measurement": "thrombi weights", "setting": "SD rats [2]; intra-duodenum 75 mg/kg", "value": "no obvious effect"}, {"measurement": "Infarction Area (%)", "setting": "SD rats [3]; 0.125 mg/kg i.v.", "value": "26.40 ± 7.42", "unit": "%"}, {"measurement": "S point in electrocardiogram", "setting": "SD rats [3]; [5]", "value": "0.33 ± 0.12"}, {"measurement": "T wave in electrocardiogram", "setting": "SD rats [3]; [5]", "value": "0.19 ± 0.15"}, {"measurement": "S point in electrocardiogram", "setting": "SD rats [3]; [6]", "value": "0.34 ± 0.19"}, {"measurement": "T wave in electrocardiogram", "setting": "SD rats [3]; [6]", "value": "0.17 ± 0.18"}, {"measurement": "S point in electrocardiogram", "setting": "SD rats [3]; [7]", "value": "0.27 ± 0.21"}, {"measurement": "T wave in electrocardiogram", "setting": "SD rats [3]; [7]", "value": "0.18 ± 0.23"}, {"measurement": "S point in electrocardiogram", "setting": "SD rats [3]; [8]", "value": "0.08 ± 0.14"}, {"measurement": "T wave in electrocardiogram", "setting": "SD rats [3]; [8]", "value": "0.02 ± 0.16"}, {"measurement": "Infarction Area (%)", "setting": "SD rats [3]; 0.25 mg/kg i.v.", "value": "25.66 ± 7.32", "unit": "%"}, {"measurement": "S point in electrocardiogram", "setting": "SD rats [3]; [9]", "value": "0.33 ± 0.17"}, {"measurement": "T wave in electrocardiogram", "setting": "SD rats [3]; [9]", "value": "0.19 ± 0.11"}, {"measurement": "S point in electrocardiogram", "setting": "SD rats [3]; [10]", "value": "0.42 ± 0.20"}, {"measurement": "T wave in electrocardiogram", "setting": "SD rats [3]; [10]", "value": "0.27 ± 0.13"}, {"measurement": "S point in electrocardiogram", "setting": "SD rats [3]; [11]", "value": "0.34 ± 0.22"}, {"measurement": "T wave in electrocardiogram", "setting": "SD rats [3]; [11]", "value": "0.26 ± 0.17"}, {"measurement": "S point in electrocardiogram", "setting": "SD rats [3]; [12]", "value": "0.24 ± 0.18"}, {"measurement": "T wave in electrocardiogram", "setting": "SD rats [3]; [12]", "value": "0.15 ± 0.11"}, {"measurement": "Infarction Area (%)", "setting": "SD rats [3]; 75 mg/kg intraduodenum", "value": "30.98 ± 7.41", "unit": "%"}, {"measurement": "S point in electrocardiogram", "setting": "SD rats [3]; [13]", "value": "0.26 ± 0.13"}, {"measurement": "T wave in electrocardiogram", "setting": "SD rats [3]; [13]", "value": "0.12 ± 0.11"}, {"measurement": "S point in electrocardiogram", "setting": "SD rats [3]; [14]", "value": "0.28 ± 0.07"}, {"measurement": "T wave in electrocardiogram", "setting": "SD rats [3]; [14]", "value": "0.15 ± 0.09"}, {"measurement": "S point in electrocardiogram", "setting": "SD rats [3]; [15]", "value": "0.28 ± 0.10"}, {"measurement": "T wave in electrocardiogram", "setting": "SD rats [3]; [15]", "value": "0.18 ± 0.11"}, {"measurement": "S point in electrocardiogram", "setting": "SD rats [3]; [16]", "value": "0.18 ± 0.22"}, {"measurement": "T wave in electrocardiogram", "setting": "SD rats [3]; [16]", "value": "0.13 ± 0.11"}, {"measurement": "infarction area and serum LDH and CK", "setting": "SD rats [3]; i.v. 0.25 mg/kg and 0.125 mg/kg", "value": "significantly reduced"}, {"measurement": "infarction area and serum LDH and CK", "setting": "SD rats [3]; intra-duodenum 75 mg/kg", "value": "no significant effects"}, {"measurement": "CK (u/ml)", "setting": "SD rats [3]; 0.125 mg/kg i.v.", "value": "52.75 ± 16.25", "unit": "u/ml"}, {"measurement": "LDH (u/ml)", "setting": "SD rats [3]; 0.125 mg/kg i.v.", "value": "6254.1 ± 220.1", "unit": "u/ml"}, {"measurement": "CK (u/ml)", "setting": "SD rats [3]; 0.25 mg/kg i.v.", "value": "56.52 ± 14.48", "unit": "u/ml"}, {"measurement": "LDH (u/ml)", "setting": "SD rats [3]; 0.25 mg/kg i.v.", "value": "6125.7 ± 385.5", "unit": "u/ml"}, {"measurement": "CK (u/ml)", "setting": "SD rats [3]; 75 mg/kg intraduodenum", "value": "53.90 ± 20.60", "unit": "u/ml"}, {"measurement": "LDH (u/ml)", "setting": "SD rats [3]; 75 mg/kg intraduodenum", "value": "6393.3 ± 308.7", "unit": "u/ml"}, {"measurement": "APTT (Activated Partial Prothromboplastin Time)", "setting": "SD rats [4]", "value": "28.0 ± 4.0"}, {"measurement": "FIB (Fibrillation)", "setting": "SD rats [4]", "value": "4.2 ± 0.9"}, {"measurement": "PT (Prothrombin Time)", "setting": "SD rats [4]", "value": "25.3 ± 5.8"}, {"measurement": "RT (Clot Retraction Time)", "setting": "SD rats [4]", "value": "83.7 ± 9.7"}]}
